# Reference: PMC2752989 (PLoS ONE, 2009)
# Experiments:
# bacteria = settings: cited from earlier work
# [1] = tested on: Candida parapsilosis ATCC 90018; assay type: cell-based; settings: pH 7.4
# [2] = tested on: C. parapsilosis ATCC 90018; assay type: cell-based, Candida parapsilosis; settings: n = 3
Substance,antibacterial activity in physiological buffers and plasma (bacteria),antimicrobial activity (viable count) with Zn2+ [1],antimicrobial activity (viable count) without Zn2+ [1],antimicrobial activity in RDA at low pH versus normal pH [2],antimicrobial activity in RDA with versus without Zn2+ [2],cell permeabilization (LDH release) (HaCaT keratinocytes)
"HKHGHGHGKHKNKGKKNGKH [HKH20, kininogen-derived antimicrobial peptide]",retain antibacterial activity in physiological buffers as well as in plasma,,,,,
GKRKKKGKGLGKKRDPCLRKYK [GKR22],retain antibacterial activity in physiological buffers as well as in plasma,,,,,
"GHHPHGHHPHGHHPHGHHPH [GHH20, H-rich control peptide derived from histidine-rich glycoprotein]",,dose-dependent killing,showed no antimicrobial activity,showed enhanced activity at low pH,significantly enhanced,
"AHHAHAAHHAHAAHHAHAAHHAHA [AHH24, previously described H-rich control peptide]",,dose-dependent killing,showed no antimicrobial activity,showed enhanced activity at low pH,significantly enhanced,
"LL-37: classical human antimicrobial cathelicidin peptide, benchmark",,,,,,less active
